The target in data set [1] is T1, TP0037 (TpD-LDH; rTP0037) (Treponema pallidum, UniProt O83080).
T1 construct: gene ldhD; full-length, residues 1-331, in pProEX-HTb (vector-derived tag); monomer 39,190 g/mol, homodimer in solution
As to the kind of experiment: colorimetric NADH-formation kit assay (A575/A605). Format: biochemical. To be noted: co-substrate NAD+, 37°C, 30 min.

Data set [2] concerns the molecule itself. The data set is described as follows: static light scattering; Dynapro Nanostar, 25°C, storage buffer (20 mM HEPES pH 7.5, 100 mM NaCl, 2 mM BOG), 1.54 mg/ml, three technical replicates; DLS monitored simultaneously.

With `C[C@@H](O)C(=O)O` [D-lactate], the “colorimetric NADH-formation kit assay (A575/A605)” value in data set [1] was “monitor the amount of NADH formation in the presence of NAD^+, D-lactate, and the enzyme”. Turning to `C[C@H](O)C(=O)O` [L-lactate], the “colorimetric NADH-formation kit assay (A575/A605)” value in data set [1] (very weak substrate) is “only about one-thousandth of the activity was observed when using L-lactate as the substrate”.

B1: TP0037, D-lactate dehydrogenase of Treponema pallidum (enzyme, UniProt O83080 1-331, looked up)
chain: MRCVVFNLREEEAPYVEKWKQSHPGVVVDTYEEPLTAKNKELLKGYEGLVVMQFLAMEDEVYDYMGACKLKVLSTRTAGFDMYNATLLKKHGIRLTNVPSYSPNAIGEYALAAALQLTRHAREIETFVRKRDFRWQKPILSKELRCSRVGILGTGRIGQAAARLFKGVGAQVVGFDPYPNDAAKEWLTYVSMDELLSTSDVISLHMPATKDSHHLINAKTIAQMKDGVYLVNTARGAVIDSQALLDSLDKGKIAGAALDAYEFEGPYIPKDNGNNPITDTVYARLVAHERIIYTPHIAFYTETAIENMVFNSLDACTTVLRGEPCAAEIKL
notes: TP0037 (D-lactate dehydrogenase), Treponema pallidum, amino acid residues 1 to 331, amplified from genomic DNA; called full-length in the results; also called rTP0037; TpD-LDH; source: E. coli BL21(DE3), purified to apparent homogeneity
With B1, the stoichiometry N (usually a count of units in the complex or per binding partner) in data set [2] was 2.

The values above are taken from publication PMC7512555 (mBio, 2020).
